From US20090318449A1, “THERAPEUTIC LACTAMS” (ALLERGAN, INC., priority 2008, published 2009)

Tested on: lashes and adjacent hairs of glaucoma patients
Test: Eyelash/hair growth observed in glaucoma patients treated in one eye
Type: in vivo, humans
Conditions: glaucoma patients treated in only one eye
Excerpt: In the course of treating patients having glaucoma, treatment may only be appropriate in one eye. […] The lash appearance on the lids of the treated eyes would have appeared quite attractive if it represented a bilateral phenomenon. As a result of its asymmetric nature, the long lashes on one side could be construed as disturbing from a cosmetic standpoint. A systemic examination was preformed as a result of the asymmetric phenomenon. It soon became apparent that this altered appearance was not an isolated finding. […] Definite differences could be identified to varying degrees in the lashes and adjacent hairs of all patients who were taking the drug on a unilateral basis for longer than 6 months.
The changes in the lashes were apparent on gross inspection in several patients once attention was focused on the issue. In those with light colored hair and lashes, the differences were only seen easily with the aid of the high magnification and lighting capabilities of the slit lamp biomicroscope. In the course of glaucoma follow-up examination, attention is generally immediately focused on the eye itself. As a result of the high power magnification needed only one eye is seen at a time and the eye is seen at a high enough power that the lashes are not in focus. […]

For CCNC(=O)CCC/C=C\C[C@@H]1[C@@H](/C=C/[C@@H](O)CCc2ccccc2)[C@H](O)C[C@@H]1O [bimatoprost], the “lash appearance, treated eye versus non-treated eye” value was “longer, thicker, and fuller”.
